System: citric acid-induced cough
Test: Citric acid-induced cough model of guinea pig
Type: in vivo
Settings: for Numbers of the cough reflex by inhalation of citric acid: 1 hour before citric acid inhalation (0.5 mol/L, 2 min), coughs counted during 15 minutes, mean ± standard error; for Suppression of cough reflex as compared with the solvent group: Student's t-test versus solvent-administered group
Excerpt: Antitussive activity is able to be evaluated by suppression of the cough induced by inhalation of a substance such as citric acid, capsaicin, etc. It is also possible to evaluate antitussive activity by suppression of the cough induced by a direct infusion of citric acid or capsaicin into airway [Nippon Yakurigaku Zasshi, volume 120, page 237 (2002)]. It is further possible to evaluate antitussive activity by suppression of the cough by a physical stimulation, for example, contact stimulation of throat or airway [Eur. J. Phazmacol., volume 329, page 93 (1997)].
Evaluation Using the Citric Acid-Induced Cough Model of Guinea Pig
Guinea pigs (Hartley strain; male; six weeks age; Nippon SLC) were used for the test. Induction of cough reflex by citric acid was conducted in a similar manner to the method by Hosoe, et al. [Yakuri to Rinsho, volume 5, page 2147 (1995)]. Thus, the guinea pig was fixed in a double chamber plethysmograph box (manufactured by Buxco Electronics) for guinea pigs and ventilation was conducted at about 1.6 L/minute. A physiological saline containing 0.5 mol/L of citric acid (manufactured by Wako Pure Chemical) was sprayed for 2 minutes from the upper part of the box of the head side using an ultrasonic nebulizer (NE-U12 manufactured by Omron) and discharged from the side drain. The cough reflex was measured by the generated cough sound and the respiration waveform. Numbers of coughs generated during 15 minutes from initiation of inhalation of citric acid were counted. Compound 1, Compound 2 and codeine phosphate (manufactured by Shionogi) each was suspended in 0.5 w/v % methyl cellulose 400 cP (manufactured by Wako Pure Chemical) and orally administered 1 hour before the initiation of the inhalation of citric acid. Incidentally, with regard to the Compound 1 and Compound 2, each 2, mg thereof was suspended in 1 mL of 0.5 w/v % methyl cellulose 400 cP while, with regard to codeine phosphate, 4 mg thereof was suspended in 1 mL of 0.5 w/v % methyl cellulose 400 cP and the suspension was administered at 5 mL per kg body weight. Numbers of the cough reflex by inhalation of citric acid in the group administered with the solvent were 7.9±1.8, while those in the group administered with 10 mg/kg of Compound 1 were 2.0±1.0. In this test, seven guinea pigs were used for the group administered with the solvent and for the group administered with Compound 1, respectively. Numbers of the cough reflex were expressed as the mean value ±standard error. […] Numbers of the cough reflex by inhalation of citric acid in the group administered with 10 mg/kg of Compound 2 were 4.3±1.0, while those in the group administered with the solvent were 10.3±1.8. In this test, twelve guinea pigs were used for the group administered with the solvent and for the group administered with Compound 2, respectively. Numbers of the cough reflex were expressed as the mean value±standard error. […] Numbers of the cough reflex in the group administered with 20 mg/kg of codeine phosphate which is a central antitussive were 1.8±0.5, while those in the group administered with the solvent were 6.8±1.4. In this test, six guinea pigs were used for the group administered with the solvent and for the group administered with codeine phosphate. Numbers of the cough reflex were expressed as the mean value±standard error.

With `C[C@](O)(C(=O)Nc1cccc2c1C(=O)c1sccc1CS2(=O)=O)C(F)(F)F` [Compound 1] the “Numbers of the cough reflex by inhalation of citric acid” value (“Numbers of the cough reflex” below) (10 mg/kg oral) was 2.0±1.0 and the “Suppression of cough reflex as compared with the solvent group” value (10 mg/kg oral) was “significant suppressive response”.
With `CC(C)(O)C(=O)Nc1cccc2c1C(=O)c1sccc1CS2(=O)=O` [Compound 2] the “Numbers of the cough reflex” value (10 mg/kg oral) was 4.3±1.0 and the “Suppression of cough reflex as compared with the solvent group” value (10 mg/kg oral) was “significant suppressive response”.
With `COc1ccc2c3c1O[C@H]1[C@@H](O)C=C[C@H]4[C@@H](C2)N(C)CC[C@@]341` [codeine phosphate, reference compound] the “Numbers of the cough reflex” value (20 mg/kg oral) was 1.8±0.5.

From patent US20060205756A1, “Antitussives” (Kyowa Hakko Kogyo Co., Ltd., priority 2003, published 2006)
